Data as given in patent US11970498B2, “CDK2 inhibitors” (BLUEPRINT MEDICINES CORPORATION, priority 2021, dated 2024).

Experiments:
CDK2/Cyclin E = CDK2/Cyclin E (Homo sapiens, UniProt P24941); test: CDK2/Cyclin E biochemical phosphorylation assay (Caliper mobility shift); details: apparent IC50; 1.0 mM ATP or ATP Km; 1.25 nM enzyme; 25° C.; read-out: CDK2/cyclin E1 IC50
Description: (§1) Inhibitory effects of the compounds of the disclosure were measured in biochemical assays that measure the enzymatic phosphorylation activity of CDK enzyme in complex of Cyclin proteins phosphorylates 7.5 micromolar fluorescently labelled peptide substrate, 5-FAM-QSPKKG-CONH2, (FL-Peptide 18, Perkin Elmer, 760362) in the presence of adenosine-5′-triphosphate (ATP) and varying concentrations of the test compound in 100 mM 2-[4-(2-hydroxyethyl)piperazin-1-yl] ethanesulfonic acid (HEPES), pH 7.5, 10 mM MgCl2, 0.015% Brij-35, 1 mM dithiothreitol (DTT), 1.0% dimethylsulfoxide (DMSO). Assays were performed at 1.0 mM ATP or at ATP Km of the CDK enzymes in complex with Cyclin proteins. Reactions proceeded until between 10% to 20% total peptides were phosphorylated at room temperature (25° C.) and were terminated with 35 mM 2,2′,2″,2′″-(ethane-1,2-diyldinitrilo)tetraacetic acid (EDTA). Product was detected using the Caliper mobility shift detection method where the phosphorylated peptide (product) and substrate were electrophoretically separated and measured. Percent activity was plotted against log concentration of compound and points to generate an apparent IC50. The following CDK enzymes in complex with different cyclin proteins were used in these assays: • CDK1/Cyclin B1, GST-tag (BPS, 40454), 1.5 nM used in the assay • CDK2/Cyclin E (Eurofins, 14-475), 1.25 nM used in the assays
(§2) For inhibitory activity against CDK2/Cyclin E mutant, the following designations are used: ≤10 nM=A; >10-20 nM=B; >20-30 nM=C; >30-100 nM=D and >100=E. For inhibition CDK1/Cyclin B1, GST-tag: ≥500 nM=A; <100-500 nM=B; <100 nM=C.

CDK1/Cyclin B1, GST-tag = target: T1, CDK1/Cyclin B1, GST-tag (Homo sapiens, UniProt P06493); test: CDK1/Cyclin B1 biochemical phosphorylation assay (Caliper mobility shift); details: apparent IC50; 1.0 mM ATP or ATP Km; 1.5 nM enzyme; 25° C.
T1 construct: GST
T1 sequence (P06493 whole entry): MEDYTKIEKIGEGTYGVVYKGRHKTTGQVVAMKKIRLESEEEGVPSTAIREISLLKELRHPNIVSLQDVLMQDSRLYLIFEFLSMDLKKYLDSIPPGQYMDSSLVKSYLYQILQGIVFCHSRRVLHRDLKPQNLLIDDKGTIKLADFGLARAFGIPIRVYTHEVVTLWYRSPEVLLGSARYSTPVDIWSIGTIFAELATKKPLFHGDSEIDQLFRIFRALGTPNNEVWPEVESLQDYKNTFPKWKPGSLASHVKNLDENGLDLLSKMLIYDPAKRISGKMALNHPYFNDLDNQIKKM
T1 sequence (P14635 whole entry partner): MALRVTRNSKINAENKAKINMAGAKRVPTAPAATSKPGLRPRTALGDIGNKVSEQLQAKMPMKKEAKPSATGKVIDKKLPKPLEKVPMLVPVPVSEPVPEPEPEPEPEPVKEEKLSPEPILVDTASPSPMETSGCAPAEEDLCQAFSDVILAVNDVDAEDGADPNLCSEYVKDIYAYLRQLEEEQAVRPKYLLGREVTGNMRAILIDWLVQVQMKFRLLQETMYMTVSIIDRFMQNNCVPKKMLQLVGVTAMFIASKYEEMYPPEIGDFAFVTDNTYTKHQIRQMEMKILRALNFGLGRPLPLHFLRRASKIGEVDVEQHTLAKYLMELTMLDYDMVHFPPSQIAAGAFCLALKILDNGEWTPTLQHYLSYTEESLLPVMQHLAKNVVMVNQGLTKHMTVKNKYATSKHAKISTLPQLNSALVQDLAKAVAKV
Description: as §1, §2

SMILES	IC50 (CDK2/Cyclin E) [nM]	IC50 (CDK1/Cyclin B1, GST-tag) [nM]
FC(F)Oc1cc(Nc2cnc3cnn([C@H](C(F)F)C4CCOCC4)c3n2)n[nH]1 (single isomer, unassigned) [Example 28, (S)-1-(2,2-difluoro-1-(tetrahydro-2H-pyran-4-yl)ethyl)-N-(5-(difluoromethoxy)-1H-pyrazol-3-yl)-1H-pyrazolo[3,4-b]pyrazin-6-amine or (R)-1-(2,2-difluoro-1-(tetrahydro-2H-pyran-4-yl)ethyl)-N-(5-(difluoromethoxy)-1H-pyrazol-3-yl)-1H-pyrazolo[3,4-b]pyrazin-6-amine]	20 to 30	≥ 500
FC(F)Oc1cc(Nc2cnc3cnn([C@@H](C(F)F)C4CCOCC4)c3n2)n[nH]1 (single isomer, unassigned) [Example 29, (R)-1-(2,2-difluoro-1-(tetrahydro-2H-pyran-4-yl)ethyl)-N-(5-(difluoromethoxy)-1H-pyrazol-3-yl)-1H-pyrazolo[3,4-b]pyrazin-6-amine or (S)-1-(2,2-difluoro-1-(tetrahydro-2H-pyran-4-yl)ethyl)-N-(5-(difluoromethoxy)-1H-pyrazol-3-yl)-1H-pyrazolo[3,4-b]pyrazin-6-amine]	≤ 10	≥ 500
FC[C@@H](C1CCOCC1)n1ncc2ncc(Nc3cc(OC(F)F)[nH]n3)nc21 (single isomer, unassigned) [Example 31]	≤ 10	< 100
COc1cc(Nc2cnc3cnn(C(C)c4cccnn4)c3n2)n[nH]1 (single isomer, unassigned) [Example 32, (S)—N-(5-methoxy-1H-pyrazol-3-yl)-1-(1-(pyridazin-3-yl)ethyl)-1H-pyrazolo[3,4-b]pyrazin-6-amine or (R)—N-(5-methoxy-1H-pyrazol-3-yl)-1-(1-(pyridazin-3-yl)ethyl)-1H-pyrazolo[3,4-b]pyrazin-6-amine]	20 to 30	≥ 500
COc1cc(Nc2cnc3cnn(C(C)c4cccnn4)c3n2)n[nH]1 (single isomer, unassigned) [Example 33, (R)—N-(5-methoxy-1H-pyrazol-3-yl)-1-(1-(pyridazin-3-yl)ethyl)-1H-pyrazolo[3,4-b]pyrazin-6-amine or (S)—N-(5-methoxy-1H-pyrazol-3-yl)-1-(1-(pyridazin-3-yl)ethyl)-1H-pyrazolo[3,4-b]pyrazin-6-amine]	≤ 10	100 to 500
FC[C@@H](c1ccccc1)n1ncc2ncc(Nc3cc(OC(F)F)[nH]n3)nc21 (single isomer, unassigned) [Example 89, (R)-N-(5-(difluoromethoxy)-1H-pyrazol-3-yl)-1-(2-fluoro-1-phenylethyl)-1H-pyrazolo[3,4-b]pyrazin-6-amine or (S)-N-(5-(difluoromethoxy)-1H-pyrazol-3-yl)-1-(2-fluoro-1-phenylethyl)-1H-pyrazolo[3,4-b]pyrazin-6-amine]	≤ 10	≥ 500
FC[C@H](c1ccccc1)n1ncc2ncc(Nc3cc(OC(F)F)[nH]n3)nc21 (single isomer, unassigned) [Example 90, (S)-N-(5-(difluoromethoxy)-1H-pyrazol-3-yl)-1-(2-fluoro-1-phenylethyl)-1H-pyrazolo[3,4-b]pyrazin-6-amine or (R)-N-(5-(difluoromethoxy)-1H-pyrazol-3-yl)-1-(2-fluoro-1-phenylethyl)-1H-pyrazolo[3,4-b]pyrazin-6-amine]	30 to 100	≥ 500
FC(F)Oc1cc(Nc2cnc3cnn(C[C@H]4CCCOC4)c3n2)n[nH]1 (single isomer, unassigned) [Example 141, (R)-N-(5-(difluoromethoxy)-1H-pyrazol-3-yl)-1-((tetrahydro-2H-pyran-3-yl)methyl)-1H-pyrazolo[3,4-b]pyrazin-6-amine or (S)-N-(5-(difluoromethoxy)-1H-pyrazol-3-yl)-1-((tetrahydro-2H-pyran-3-yl)methyl)-1H-pyrazolo[3,4-b]pyrazin-6-amine]	≤ 10	≥ 500
